# Data: patent publication US5254731A, “Substituted 3,4-dihydronaphthalenes, pharmaceutical compositions containing them, and preparation processes” (Gruenenthal GmbH, priority 1991, dated 1993)
# Legend:
# [1] = tested on: endotoxin/galactosamine-induced hepatitis; assay: endotoxin/galactosamine-induced hepatitis in mice (septic shock model); type: in vivo, mouse; details: for Inhibition of increase of the enzymatic activity of GPT / Inhibition of increase of the enzymatic activity of SDH: i.p., 10 mg/kg for each of five administrations, serum, 8 hours after endotoxin; for shock mortality: endotoxin/galactosamine-induced hepatitis model
# Protocol: To evaluate the effects of compounds according to the invention on septic shock, endotoxin/galactosamine-induced hepatitis in mice was used as test model. […] Intraperitoneal administration of compounds of formula I 30 minutes before, simultaneously with, and 2, 4 and 6 hours after administration of the endotoxin inhibits the hepatitis-induced increase of the activities of these enzymes in the serum. On administration of compounds of formula I in doses of 10 mg/kg for each of the five administrations, the following percentage inhibitions of the increase of the enzymatic activities of GPT and SDH were achieved (the increase of enzymatic activities in control animals who had been treated five times with a solution containing 1% by weight of sodium carboxymethylcellulose was set at 100%): […]
# [2] = tested on: bronchoconstriction elicited by ovalbumin; assay: anti-asthmatic effect: ovalbumin-elicited bronchoconstriction in anesthetized, passively sensitized guinea pigs; type: in vivo, guinea pig; details: Cavia porcellus, 1 h; oral, 60 minutes before ovalbumin 0.2 mg/kg i.v.; read-out: ED40 (40% average inhibition of the bronchoconstriction elicited by ovalbumin)
# Protocol: The anti-asthmatic effect of compounds according to the invention was tested in anesthetized and ventilated guinea pigs. To induce an asthmatic reaction, the animals were passively sensitized by a single intraperitoneal injection of anti-ovalbumin serum. After 48 hours the asthmatic reaction was elicited by intravenous challenge with 0.2 mg/kg of ovalbumin. The immediately resulting bronchoconstriction was measured as an increase in intratracheal pressure. Effects caused by histamine, serotonin and sympathic counterreaction were eliminated by intravenous pretreatment with 2.15 mg/kg of mepyramine, 46.4 mg/kg of propranolol, 4.64 mg/kg of atropine and 1 mg/kg of methysergide, all administered 5 minutes before challenge. Substituted 3,4-dihydronaphthalenes were orally administered 60 minutes before the administration of ovalbumin.
# [3] = comparative compound, aforementioned test model
# [4] = comparative compounds of formula A, aforementioned test model
Structure (SMILES),Inhibition of increase of the enzymatic activity of GPT [1] [%],Inhibition of increase of the enzymatic activity of SDH [1] [%],ED40 [2] [mg/kg],also measured
"COc1ccc2c(c1)CCC(CN(O)C(C)=O)=C2 [Example 1, N-[(6-methoxy-3,4-dihydronaphth-2-yl)methyl]acetohydroxamic acid]",54,41,,
"COc1ccc2c(c1)CCC(C(C)N(O)C(C)=O)=C2 (stereo not drawn) [Example 2, N-[1-(6-methoxy-3,4-dihydronaphth-2-yl)ethyl]acetohydroxamic acid]",56,69,,
"COc1ccc2c(c1)CCC(CN(O)C(N)=O)=C2 [Example 3, N-hydroxy-N-[(6-methoxy-3,4-dihydronaphth-2-yl)methyl]urea]",78,57,33.5,
"CC(=O)N(O)CC1=Cc2ccc(OC3CCCC3)cc2CC1 [Example 6a, N-[(6-cyclopentyloxy 3,4-dihydronaphth 2 yl)methyl]acetohydroxamic acid]",,,275,
"CC(C)Oc1ccc2c(c1)CCC(CN(O)C(N)=O)=C2 [Example 6e, N-hydroxy-N-[(6-isopropoxy-3,4-dihydronaphth-2-yl)methyl]urea]",,,368,
"NC(=O)N(O)CC1=Cc2ccc(OCc3ccccc3)cc2CC1 [Example A1, reference compound]",,,,"inhibition of GPT (in words) [1, 3]: did not cause either an inhibition of GPT; inhibition of SDH (in words) [1, 3]: did not cause either an inhibition of GPT and SDH; shock mortality [1]: did not cause either an inhibition of GPT and SDH or a decrease in the shock mortality"
"CC(=O)N(O)CC1=Cc2ccc(OCc3ccccc3)cc2CC1 [Example A2, reference compound]",,,,"inhibition of GPT [1, 4]: 16%; inhibition of SDH [1, 4]: 32%; shock mortality [1]: no detectable influence on shock mortality"
